Key:
[1] = target: IKZF1 (Homo sapiens (Human), UniProt Q13422+Q96SW2); assay: In vitro IKZF1 HiBit Assay (HEK293T Flp-in-HiBiT-IKZF1 stable cell line); type: cell-based; conditions: HEK293T Flp-in-HiBiT-IKZF1 stable cell line, 6 hrs incubation; for DC50: read-out: IKZF1 HiBit DC50; for Dmax: HEK-293T, read-out: IKZF1 HiBit Dmax (%)
Method in brief: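 HEK293T Flp-in cells carrying N-terminal HiBiT-tagged IKZF1 were exposed to compound (0.1% DMSO) for 6 h at 3000 cells/well. HiBiT luminescence was read after lytic LgBiT detection. DC50 and Dmax were taken from DMSO-normalized dose-response curves.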

[2] = target: T1, IKZF2 (Homo sapiens (Human), UniProt Q96SW2+Q9UKS7); assay: In vitro IKZF2 FACS Assay in Jurkat cells; type: cell-based; conditions: 24 hrs; for DC50: half maximal degradation concentration; for Dmax: maximal degradation percentage
Protocol: In vitro IKZF2 FACS Assay
DC50, A: <1 nM; B: 1-10 nM; C: 10-100 nM; D: 100-1000 nM; E: >1000 nM. Dmax, A: >80%; B: 60-80%; C: 40-60%; D: 20-40%; E: <20%.

[3] = target: CRBN/DDB1 (Homo sapiens (Human), UniProt Q96SW2); assay: IC50 measurements for binding to CRBN/DDB1 (HTRF); conditions: His tagged CRBN+DDB, Cy5-labeled Thalidomide probe, one hour
Method in brief: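 HTRF competition binding with 2 nM His-tagged CRBN-DDB1 complex, 60 nM Cy5-thalidomide probe and 0.4 nM anti-His Tb cryptate in 50 mM HEPES pH 7.5, 1 mM TCEP, 0.01% Brij-35, 50 mM NaCl, 0.1% BSA. Read after 1 h at room temperature; IC50 from four-parameter dose-response fit.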

[4] = target: T1, IKZF2; assay: In vitro IKZF2 HiBit Assay (HEK293T Flp-in-HiBiT cells); type: cell-based; conditions: HEK293T Flp-in-HiBiT cells, 6 hrs incubation; for DC50: read-out: IKZF2 HiBit DC50; for Dmax: HEK-293T, read-out: IKZF2 HiBit Dmax (%)
Method in brief: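 HEK293T Flp-in cells carrying an endogenous N-terminal HiBiT tag on IKZF2 were exposed to compound for 6 h at 0.1% DMSO. The dilution series was 11 doses at 3-fold, diluted from 1 mM. Nano-Glo HiBiT lytic luminescence, normalized to DMSO, gave DC50 for 50% degradation and Dmax across the concentration range, both reported in letter bins.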

Sequence of IKZF1 (Q13422 whole entry): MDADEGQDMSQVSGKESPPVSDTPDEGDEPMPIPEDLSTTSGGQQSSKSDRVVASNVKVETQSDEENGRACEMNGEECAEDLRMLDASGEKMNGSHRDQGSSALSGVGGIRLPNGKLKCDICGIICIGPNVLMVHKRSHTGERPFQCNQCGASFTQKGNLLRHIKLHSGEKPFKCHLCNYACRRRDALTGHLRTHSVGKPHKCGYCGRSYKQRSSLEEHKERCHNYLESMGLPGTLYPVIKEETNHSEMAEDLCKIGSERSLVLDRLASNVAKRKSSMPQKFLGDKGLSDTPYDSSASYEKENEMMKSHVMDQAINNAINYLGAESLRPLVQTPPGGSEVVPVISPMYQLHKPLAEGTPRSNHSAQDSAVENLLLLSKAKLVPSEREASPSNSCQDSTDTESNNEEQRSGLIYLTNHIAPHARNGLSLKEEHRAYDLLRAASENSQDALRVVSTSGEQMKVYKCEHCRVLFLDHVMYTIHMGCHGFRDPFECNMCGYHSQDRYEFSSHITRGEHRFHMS
Sequence of IKZF1 (Q96SW2 whole entry): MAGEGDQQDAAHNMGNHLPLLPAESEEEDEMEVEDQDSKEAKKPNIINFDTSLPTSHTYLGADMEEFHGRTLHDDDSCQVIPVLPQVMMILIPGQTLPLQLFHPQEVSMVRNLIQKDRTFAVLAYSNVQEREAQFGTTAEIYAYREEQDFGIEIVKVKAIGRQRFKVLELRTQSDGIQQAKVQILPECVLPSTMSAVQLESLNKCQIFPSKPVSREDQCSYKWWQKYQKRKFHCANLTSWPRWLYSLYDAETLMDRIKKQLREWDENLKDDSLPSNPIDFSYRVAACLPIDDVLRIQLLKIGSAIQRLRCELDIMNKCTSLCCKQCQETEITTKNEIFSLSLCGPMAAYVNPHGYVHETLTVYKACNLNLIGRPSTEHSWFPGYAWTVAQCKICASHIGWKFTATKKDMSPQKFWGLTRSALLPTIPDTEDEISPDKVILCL
Sequence of IKZF1 (Q16531 2-1140 partner): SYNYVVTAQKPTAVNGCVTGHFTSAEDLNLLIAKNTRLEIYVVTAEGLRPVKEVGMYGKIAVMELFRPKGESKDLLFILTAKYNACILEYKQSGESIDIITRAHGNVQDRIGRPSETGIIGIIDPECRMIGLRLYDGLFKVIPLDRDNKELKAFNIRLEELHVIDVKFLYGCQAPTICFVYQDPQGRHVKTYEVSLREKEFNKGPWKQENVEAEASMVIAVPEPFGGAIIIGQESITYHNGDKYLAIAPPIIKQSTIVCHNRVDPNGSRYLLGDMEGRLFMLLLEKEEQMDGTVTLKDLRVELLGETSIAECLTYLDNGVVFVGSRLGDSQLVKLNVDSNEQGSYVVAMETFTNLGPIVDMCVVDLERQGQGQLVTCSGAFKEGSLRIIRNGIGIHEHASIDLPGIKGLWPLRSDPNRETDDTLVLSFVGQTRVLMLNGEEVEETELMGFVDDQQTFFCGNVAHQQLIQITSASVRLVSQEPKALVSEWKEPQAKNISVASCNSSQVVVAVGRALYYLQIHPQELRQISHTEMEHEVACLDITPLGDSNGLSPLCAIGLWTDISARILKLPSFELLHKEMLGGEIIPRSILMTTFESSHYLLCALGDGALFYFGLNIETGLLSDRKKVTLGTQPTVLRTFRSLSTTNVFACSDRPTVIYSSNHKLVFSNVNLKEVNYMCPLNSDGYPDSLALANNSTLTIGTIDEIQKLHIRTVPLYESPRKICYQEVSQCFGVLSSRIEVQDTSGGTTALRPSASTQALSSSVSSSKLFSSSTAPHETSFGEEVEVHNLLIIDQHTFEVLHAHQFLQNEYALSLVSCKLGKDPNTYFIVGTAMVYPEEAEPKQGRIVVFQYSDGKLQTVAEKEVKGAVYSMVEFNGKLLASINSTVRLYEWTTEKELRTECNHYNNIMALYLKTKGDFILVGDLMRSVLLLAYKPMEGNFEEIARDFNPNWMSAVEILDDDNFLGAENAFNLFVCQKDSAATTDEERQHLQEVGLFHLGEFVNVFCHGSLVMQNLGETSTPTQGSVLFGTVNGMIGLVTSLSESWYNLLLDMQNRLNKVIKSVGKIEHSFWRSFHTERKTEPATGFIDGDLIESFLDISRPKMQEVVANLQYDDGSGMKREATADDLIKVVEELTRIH
T1 sequence (Q9UKS7 whole entry): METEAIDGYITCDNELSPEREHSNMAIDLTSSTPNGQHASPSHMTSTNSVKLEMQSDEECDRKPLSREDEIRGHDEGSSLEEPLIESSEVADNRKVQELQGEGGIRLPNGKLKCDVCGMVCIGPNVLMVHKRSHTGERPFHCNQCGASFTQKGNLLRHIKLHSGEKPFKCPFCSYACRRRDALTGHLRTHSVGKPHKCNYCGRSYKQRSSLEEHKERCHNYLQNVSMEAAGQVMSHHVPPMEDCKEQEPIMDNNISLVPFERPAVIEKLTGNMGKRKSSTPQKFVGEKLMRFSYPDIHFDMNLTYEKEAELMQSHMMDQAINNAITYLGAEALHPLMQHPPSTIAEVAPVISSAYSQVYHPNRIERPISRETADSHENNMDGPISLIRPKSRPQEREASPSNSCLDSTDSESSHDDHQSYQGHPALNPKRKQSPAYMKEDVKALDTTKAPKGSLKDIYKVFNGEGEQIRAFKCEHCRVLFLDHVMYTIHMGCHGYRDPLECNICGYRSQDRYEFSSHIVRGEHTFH
T1 sequence (Q96SW2 whole entry): as the sequence (Q96SW2 whole entry) above
T1 sequence (Q16531 2-1140 partner): as the sequence (Q16531 2-1140 partner) above
Sequence of CRBN/DDB1 (Q96SW2 whole entry, species assumed): as the sequence (Q96SW2 whole entry) above
Sequence of CRBN/DDB1 (Q16531 whole entry partner, species assumed): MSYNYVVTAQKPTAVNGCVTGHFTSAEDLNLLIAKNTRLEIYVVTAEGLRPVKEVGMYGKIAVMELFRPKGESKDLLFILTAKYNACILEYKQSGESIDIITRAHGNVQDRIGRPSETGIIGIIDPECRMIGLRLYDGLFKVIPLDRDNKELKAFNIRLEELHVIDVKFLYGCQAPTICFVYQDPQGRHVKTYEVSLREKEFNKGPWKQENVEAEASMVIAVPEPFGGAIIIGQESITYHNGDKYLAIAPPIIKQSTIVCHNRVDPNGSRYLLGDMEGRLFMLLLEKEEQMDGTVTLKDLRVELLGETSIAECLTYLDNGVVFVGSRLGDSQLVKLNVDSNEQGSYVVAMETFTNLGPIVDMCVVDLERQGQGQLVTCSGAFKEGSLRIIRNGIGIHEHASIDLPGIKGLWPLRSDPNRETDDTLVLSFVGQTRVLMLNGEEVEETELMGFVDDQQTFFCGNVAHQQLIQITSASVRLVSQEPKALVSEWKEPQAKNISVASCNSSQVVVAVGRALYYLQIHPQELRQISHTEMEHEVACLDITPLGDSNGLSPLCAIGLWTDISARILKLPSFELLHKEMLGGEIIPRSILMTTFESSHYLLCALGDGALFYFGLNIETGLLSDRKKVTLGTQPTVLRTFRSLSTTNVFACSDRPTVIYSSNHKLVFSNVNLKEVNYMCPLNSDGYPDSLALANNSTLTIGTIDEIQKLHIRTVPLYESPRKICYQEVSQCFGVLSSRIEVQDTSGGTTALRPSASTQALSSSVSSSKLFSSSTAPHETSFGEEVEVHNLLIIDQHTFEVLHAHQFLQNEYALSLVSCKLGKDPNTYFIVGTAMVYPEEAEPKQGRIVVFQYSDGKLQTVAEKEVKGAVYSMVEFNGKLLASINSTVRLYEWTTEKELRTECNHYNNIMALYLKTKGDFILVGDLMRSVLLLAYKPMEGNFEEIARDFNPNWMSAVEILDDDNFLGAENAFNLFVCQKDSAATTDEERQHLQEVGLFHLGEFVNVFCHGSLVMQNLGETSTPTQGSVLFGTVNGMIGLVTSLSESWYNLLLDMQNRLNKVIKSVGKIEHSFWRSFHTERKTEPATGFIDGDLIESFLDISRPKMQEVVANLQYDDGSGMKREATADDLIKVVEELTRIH

Row | Compound | DC50 [1] [µM] | Dmax [1] [%] | DC50 [2] [µM] | Dmax [2] [%] | IC50 [3] [µM] | DC50 [4] [µM] | Dmax [4] [%]
1 | O=C1CCC(N2Cc3cc(-c4cc(CN5CCCC5)cc5cncn45)ccc3C2=O)C(=O)N1 (centres unmarked) [Example 1, 3-(1-oxo-5-(7-(pyrrolidin-1-ylmethyl)imidazo[1,5-a]pyridin-5-yl)isoindolin-2-yl) piperidine-2,6-dione] | > 10 | < 20 | 0.01 to 0.1 | 60 to 80 | 0.1 to 0.5 | 0.01 to 0.1 | 60 to 80
2 | O=C1CCC(N2Cc3cc(-c4cc(CN5CCCCC5)cc5cncn45)ccc3C2=O)C(=O)N1 (centres unmarked) [Example 3, 3-(1-oxo-5-(7-(piperidin-1-ylmethyl)imidazo[1,5-a]pyridin-5-yl)isoindolin-2-yl) piperidine-2,6-dione] | > 10 | < 20 | 0.01 to 0.1 | 40 to 60 | 0.1 to 0.5 | 0.01 to 0.1 | 60 to 80
3 | O=C1CCC(N2Cc3cc(-c4cc(CN5CCOCC5)cc5cncn45)ccc3C2=O)C(=O)N1 (centres unmarked) [Example 4, 3-(5-(7-(morpholinomethyl)imidazo[1,5-a]pyridin-5-yl)-1-oxoisoindolin-2-yl) piperidine-2,6-dione] |  |  | > 1 | 20 to 40 | 1 to 5 |  | 
4 | CC1CCCN(Cc2cc(-c3ccc4c(c3)CN(C3CCC(=O)NC3=O)C4=O)n3cncc3c2)C1 (centres unmarked) [Example 5, 3-(5-(7-((3-methylpiperidin-1-yl)methyl)imidazo[1,5-a]pyridin-5-yl)-1-oxoisoindolin-2-yl) piperidine-2,6-dione] |  |  | 0.01 to 0.1 | 40 to 60 | 1 to 5 |  | 
5 | CC1CCN(Cc2cc(-c3ccc4c(c3)CN(C3CCC(=O)NC3=O)C4=O)n3cncc3c2)C1 (centres unmarked) [Example 6, 3-(5-(7-((3-methylpyrrolidin-1-yl)methyl)imidazo[1,5-a]pyridin-5-yl)-1-oxoisoindolin-2-yl) piperidine-2,6-dione] | > 10 | < 20 | 0.01 to 0.1 | 60 to 80 | 0.1 to 0.5 | 0.01 to 0.1 | 60 to 80
6 | O=C1CCC(N2Cc3cc(-c4cc(CN5CC6CC6C5)cc5cncn45)ccc3C2=O)C(=O)N1 (centres unmarked) [Example 7, 3-(5-(7-((3-azabicyclo[3.1.0]hexan-3-yl)methyl)imidazo[1,5-a]pyridin-5-yl)-1-oxoisoindolin-2-yl) piperidine-2,6-dione] |  |  | 0.01 to 0.1 | 40 to 60 | 0.5 to 1 |  | 
7 | O=C1CCC(N2Cc3cc(-c4cc(CN5CCC6(CC5)CC6)cc5cncn45)ccc3C2=O)C(=O)N1 (centres unmarked) [Example 8, 3-(5-(7-((6-azaspiro[2.5]octan-6-yl)methyl)imidazo[1,5-a]pyridin-5-yl)-1-oxoisoindolin-2-yl) piperidine-2,6-dione] | > 10 | < 20 | 0.01 to 0.1 | 40 to 60 | 1 to 5 | 0.01 to 0.1 | 40 to 60
8 | O=C1CCC(N2Cc3cc(-c4cc(CN5CCC6(CCC6)CC5)cc5cncn45)ccc3C2=O)C(=O)N1 (centres unmarked) [Example 9, 3-(5-(7-((7-azaspiro[3.5]nonan-7-yl)methyl)imidazo[1,5-a]pyridin-5-yl)-1-oxoisoindolin-2-yl) piperidine-2,6-dione] |  |  | 0.01 to 0.1 | 40 to 60 | 0.5 to 1 |  | 
9 | O=C1CCC(N2Cc3cc(-c4cc(CN5CCC6(CC5)COC6)cc5cncn45)ccc3C2=O)C(=O)N1 (centres unmarked) [Example 10, 3-(5-(7-((2-oxa-7-azaspiro[3.5]nonan-7-yl)methyl)imidazo[1,5-a]pyridin-5-yl)-1-oxoisoindolin-2-yl) piperidine-2,6-dione] | > 10 | < 20 | 0.001 to 0.01 | 40 to 60 | 0.5 to 1 | 1 to 10 | 40 to 60
10 | O=C1CCC(N2Cc3cc(-c4cc(CN5CC6COCC(C6)C5)cc5cncn45)ccc3C2=O)C(=O)N1 (centres unmarked) [Example 11] |  |  | 0.1 to 1 | 40 to 60 | 0.5 to 1 |  | 
11 | CCN(CC)Cc1cc(-c2ccc3c(c2)CN(C2CCC(=O)NC2=O)C3=O)n2cncc2c1 (centres unmarked) [Example 12, 3-(5-(7-((diethylamino)methyl)imidazo[1,5-a]pyridin-5-yl)-1-oxoisoindolin-2-yl) piperidine-2,6-dione] |  |  | 0.1 to 1 | 40 to 60 | 0.1 to 0.5 |  | 
12 | O=C1CCC(N2Cc3cc(-c4cc(CNCc5ccccc5)cc5cncn45)ccc3C2=O)C(=O)N1 (centres unmarked) [Example 13, 3-(5-(7-((benzylamino)methyl)imidazo[1,5-a]pyridin-5-yl)-1-oxoisoindolin-2-yl) piperidine-2,6-dione] |  |  | 0.01 to 0.1 | 20 to 40 | 0.1 to 0.5 |  | 
13 | CC(C)(NCc1cc(-c2ccc3c(c2)CN(C2CCC(=O)NC2=O)C3=O)n2cncc2c1)c1ccccc1 (centres unmarked) [Example 18, 3-(1-oxo-5-(7-(((2-phenylpropan-2-yl)amino)methyl)imidazo[1,5-a]pyridin-5-yl)isoindolin-2-yl) piperidine-2,6-dione] |  |  | 0.1 to 1 | 40 to 60 | 0.5 to 1 |  | 
14 | CN(Cc1cc(-c2ccc3c(c2)CN(C2CCC(=O)NC2=O)C3=O)n2cncc2c1)C(C)(C)c1ccccc1 (centres unmarked) [Example 19, 3-(5-(7-((methyl (2-phenylpropan-2-yl)amino)methyl)imidazo[1,5-a]pyridin-5-yl)-1-oxoisoindolin-2-yl) piperidine-2,6-dione] |  |  | 0.1 to 1 | 20 to 40 | 1 to 5 |  | 
15 | CC(NCc1cc(-c2ccc3c(c2)CN(C2CCC(=O)NC2=O)C3=O)n2cncc2c1)c1cccc(Cl)c1 (centres unmarked) [Example 20, 3-(5-(7-(((1-(3-chlorophenyl)ethyl)amino)methyl)imidazo[1,5-a]pyridin-5-yl)-1-oxoisoindolin-2-yl) piperidine-2,6-dione] |  |  | 0.01 to 0.1 | 20 to 40 | 1 to 5 |  | 
16 | Cc1ccc(CCNCc2cc(-c3ccc4c(c3)CN(C3CCC(=O)NC3=O)C4=O)n3cncc3c2)cc1Cl (centres unmarked) [Example 22] |  |  | > 1 | 20 to 40 | 1 to 5 |  | 
17 | CC(NCc1cc(-c2ccc3c(c2)CN(C2CCC(=O)NC2=O)C3=O)n2cncc2c1)c1ccccc1Cl (centres unmarked) [Example 23, 3-(5-(7-(((1-(2-chlorophenyl)ethyl)amino)methyl)imidazo[1,5-a]pyridin-5-yl)-1-oxoisoindolin-2-yl) piperidine-2,6-dione] |  |  | 0.01 to 0.1 | 20 to 40 | 1 to 5 |  | 
18 | O=C1CCC(N2Cc3cc(-c4cc(CNCc5cccc6ccccc56)cc5cncn45)ccc3C2=O)C(=O)N1 (centres unmarked) [Example 24, 3-(5-(7-(((naphthalen-1-ylmethyl)amino)methyl)imidazo[1,5-a]pyridin-5-yl)-1-oxoisoindolin-2-yl) piperidine-2,6-dione] |  |  | 0.01 to 0.1 | 20 to 40 | 1 to 5 |  | 
19 | Cn1ccc2cccc(CNCc3cc(-c4ccc5c(c4)CN(C4CCC(=O)NC4=O)C5=O)n4cncc4c3)c21 (centres unmarked) [Example 25] |  |  | > 1 | < 20 | 0.1 to 0.5 |  | 
20 | O=C1CCC(N2Cc3c(ccc(-c4cc(CN5CCCC5)cc5cncn45)c3F)C2=O)C(=O)N1 (centres unmarked) [Example 27, 3-(4-fluoro-1-oxo-5-(7-(pyrrolidin-1-ylmethyl)imidazo[1,5-a]pyridin-5-yl)isoindolin-2-yl) piperidine-2,6-dione] |  |  | 0.01 to 0.1 | 40 to 60 | 0.5 to 1 |  | 
21 | COc1c(-c2cc(CN3CCCC3)cc3cncn23)ccc2c1CN(C1CCC(=O)NC1=O)C2=O (centres unmarked) [Example 31, 3-(4-methoxy-1-oxo-5-(7-(pyrrolidin-1-ylmethyl)imidazo[1,5-a]pyridin-5-yl)isoindolin-2-yl) piperidine-2,6-dione] |  |  | > 1 | < 20 | 0.1 to 0.5 |  | 
22 | Cn1cnc2c(-c3ccc4c(c3)CN(C3CCC(=O)NC3=O)C4=O)cc(CNCCc3ccccc3Cl)cc21 (centres unmarked) [Example 51, 3-(5-(6-(((2-chlorophenethyl)amino)methyl)-1-methyl-1H-benzo[d]imidazol-4-yl)-1-oxoisoindolin-2-yl) piperidine-2,6-dione] |  |  | > 1 | 20 to 40 | 0.1 to 0.5 |  | 
23 | O=C1CCC(N2Cc3cc(-c4ncc5ccc(CN6CCCC6)cn45)ccc3C2=O)C(=O)N1 (centres unmarked) [Example 53, 3-(1-oxo-5-(6-(pyrrolidin-1-ylmethyl)imidazo[1,5-a]pyridin-3-yl)isoindolin-2-yl) piperidine-2,6-dione] |  |  | > 1 | 20 to 40 | 5 to 10 |  | 

— patent US20250214991A1 (Oncopia Therapeutics, Inc. d/b/a/ SK Life Science Labs, priority 2022, published 2025)
